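Grown in 96-well plates, cells were treated for 48 hours with each compound at five concentrations. Insufficient inhibition: endpoint recorded as highest concentration tested. GI50 is the concentration that inhibits growth by half.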 Active and inactive are the calls of the source. Rule as the data show it: active = GI50 up to about 1.1 µM and inactive = higher.
Tests used:
Assay in all cases: growth of human tumour cells (NCI), 48 h
[1] = tested on: NCI-H226
[2] = tested on: MCF7
[3] = tested on: MDA-MB-435
[4] = tested on: SF-539
[5] = tested on: PC-3
[6] = tested on: COLO 205
[7] = tested on: OVCAR-4
[8] = tested on: EKVX
[9] = tested on: RXF 393
[10] = tested on: RPMI-8226
[11] = tested on: UO-31
[12] = tested on: M14
[13] = tested on: LOX IMVI
[14] = tested on: MDA-MB-231
[15] = tested on: SK-OV-3
[16] = tested on: T47D
[17] = tested on: CCRF-CEM
[18] = tested on: SW-620
[19] = tested on: A498
[20] = tested on: SF-268

With `COc1cc(S(=O)(=O)N/N=C/c2cc(Br)c(O)c(OC)c2)c(OC)cc1NC(C)=O` as the molecule, how does the GI50 [1] read?
Its GI50 is > 100 µM (inactive).

And the GI50 [2]?
The GI50 was 57.4 µM (inactive).

What about the GI50 [3] of the same molecule?
Its GI50 is 80.5 µM (inactive).

And the GI50 [4]?
The GI50 was 20.2 µM (inactive).

What about the GI50 [5] of the same molecule?
Its GI50 is 62.2 µM (inactive).

What about the GI50 [6] of the same molecule?
The GI50 was 23.4 µM (inactive).

And the GI50 [7]?
Its GI50 is 69.3 µM (inactive).

What about the GI50 [8] of the same molecule?
The GI50 was 55.5 µM (inactive).

And the GI50 [9]?
The GI50 was 42.6 µM (inactive).

And the GI50 [10]?
The GI50 was 47.2 µM (inactive).

What about the GI50 [11] of the same molecule?
The GI50 was > 100 µM (inactive).

What about the GI50 [12] of the same molecule?
The GI50 was > 100 µM (inactive).

And the GI50 [13]?
The GI50 was 38.6 µM (inactive).

And the GI50 [14]?
Its GI50 is 52.6 µM (inactive).

What about the GI50 [15] of the same molecule?
The GI50 was > 100 µM (inactive).

And the GI50 [16]?
Its GI50 is 41.3 µM (inactive).

What about the GI50 [17] of the same molecule?
Its GI50 is 21.7 µM (inactive).

What about the GI50 [18] of the same molecule?
Its GI50 is 35.1 µM (inactive).

What about the GI50 [19] of the same molecule?
Its GI50 is > 100 µM (inactive).

What does the source list for `COc1cc(/C=C/c2sc3ccccc3[n+]2C)ccc1N(C)C`?
GI50 [1]: 22.4 µM (inactive); GI50 [2]: 4.45 µM (inactive); GI50 [3]: 3.32 µM (inactive); GI50 [4]: 17.3 µM (inactive); GI50 [5]: 3.24 µM (inactive); GI50 [6]: 1.29 µM (inactive); GI50 [7]: 1.33 µM (inactive); GI50 [8]: 21.8 µM (inactive); GI50 [9]: 16.6 µM (inactive); GI50 [10]: 2.21 µM (inactive); GI50 [11]: < 0.01 µM (active); GI50 [12]: 13.4 µM (inactive); GI50 [13]: 15.8 µM (inactive); GI50 [14]: 6.14 µM (inactive); GI50 [15]: 23.6 µM (inactive); GI50 [16]: 3.21 µM (inactive); GI50 [17]: 2.06 µM (inactive); GI50 [18]: 5.07 µM (inactive); GI50 [19]: 44 µM (inactive); GI50 [20]: 13.8 µM (inactive)

For `O=C1C=CC(=O)c2c1ccc1c3ccccc3n(CCCCCCCCn3c4ccccc4c4ccc5c(c43)C(=O)C=CC5=O)c21`, which GI50 [1] is on record?
Its GI50 is > 100 µM (inactive).

What about the GI50 [2] of the same molecule?
Its GI50 is > 100 µM (inactive).

And the GI50 [3]?
The GI50 was > 100 µM (inactive).

What about the GI50 [4] of the same molecule?
Its GI50 is > 100 µM (inactive).

What about the GI50 [5] of the same molecule?
Its GI50 is > 100 µM (inactive).

And the GI50 [6]?
Its GI50 is > 100 µM (inactive).

And the GI50 [7]?
Its GI50 is > 100 µM (inactive).

And the GI50 [8]?
The GI50 was > 100 µM (inactive).

And the GI50 [9]?
The GI50 was > 100 µM (inactive).

And the GI50 [10]?
The GI50 was > 100 µM (inactive).

And the GI50 [12]?
Its GI50 is > 100 µM (inactive).

What about the GI50 [13] of the same molecule?
Its GI50 is > 100 µM (inactive).

What about the GI50 [14] of the same molecule?
Its GI50 is > 100 µM (inactive).

And the GI50 [15]?
Its GI50 is > 100 µM (inactive).

What about the GI50 [16] of the same molecule?
Its GI50 is > 100 µM (inactive).

And the GI50 [17]?
Its GI50 is > 100 µM (inactive).

And the GI50 [18]?
Its GI50 is > 100 µM (inactive).

What about the GI50 [19] of the same molecule?
The GI50 was > 100 µM (inactive).

What about the GI50 [20] of the same molecule?
Its GI50 is > 100 µM (inactive).

Which GI50 [1] does the source give for `CC(C)c1cc2c(cc1S(=O)(=O)O)[C@@]1(C)CCC[C@@](C)(C(=O)O)C1CC2` (some centres not stated) here?
The GI50 was > 100 µM (inactive).

What about the GI50 [2] of the same molecule?
Its GI50 is > 100 µM (inactive).

And the GI50 [3]?
Its GI50 is > 100 µM (inactive).

What about the GI50 [4] of the same molecule?
Its GI50 is > 100 µM (inactive).

What about the GI50 [5] of the same molecule?
The GI50 was > 100 µM (inactive).

And the GI50 [6]?
Its GI50 is > 100 µM (inactive).

And the GI50 [7]?
Its GI50 is > 100 µM (inactive).

What about the GI50 [8] of the same molecule?
Its GI50 is > 100 µM (inactive).

What about the GI50 [9] of the same molecule?
Its GI50 is > 100 µM (inactive).

And the GI50 [10]?
The GI50 was > 100 µM (inactive).

And the GI50 [11]?
The GI50 was > 100 µM (inactive).

What about the GI50 [12] of the same molecule?
Its GI50 is > 100 µM (inactive).

And the GI50 [13]?
Its GI50 is > 100 µM (inactive).

And the GI50 [14]?
Its GI50 is > 100 µM (inactive).

And the GI50 [15]?
The GI50 was > 100 µM (inactive).

What about the GI50 [16] of the same molecule?
Its GI50 is > 100 µM (inactive).

What about the GI50 [17] of the same molecule?
Its GI50 is > 100 µM (inactive).

What about the GI50 [18] of the same molecule?
The GI50 was > 100 µM (inactive).

What about the GI50 [19] of the same molecule?
Its GI50 is > 100 µM (inactive).

What about the GI50 [20] of the same molecule?
Its GI50 is > 100 µM (inactive).

`O=C1N/C(=N/N=C/C(O)C(O)C(O)C(O)CO)N/C1=C\c1ccco1` (configuration not stated) was tested. Which GI50 [1] did it give?
Its GI50 is > 100 µM (inactive).

What about the GI50 [2] of the same molecule?
Its GI50 is > 100 µM (inactive).

What about the GI50 [3] of the same molecule?
Its GI50 is > 100 µM (inactive).

What about the GI50 [4] of the same molecule?
Its GI50 is > 100 µM (inactive).

What about the GI50 [5] of the same molecule?
Its GI50 is 32.3 µM (inactive).

What about the GI50 [6] of the same molecule?
Its GI50 is > 100 µM (inactive).

What about the GI50 [7] of the same molecule?
Its GI50 is > 100 µM (inactive).

And the GI50 [8]?
Its GI50 is > 100 µM (inactive).

What about the GI50 [9] of the same molecule?
The GI50 was > 100 µM (inactive).

And the GI50 [10]?
The GI50 was > 100 µM (inactive).

And the GI50 [12]?
The GI50 was > 100 µM (inactive).

And the GI50 [13]?
The GI50 was > 100 µM (inactive).

And the GI50 [14]?
The GI50 was > 100 µM (inactive).

And the GI50 [15]?
The GI50 was > 100 µM (inactive).

And the GI50 [16]?
Its GI50 is > 100 µM (inactive).

And the GI50 [17]?
The GI50 was 48.4 µM (inactive).

What about the GI50 [18] of the same molecule?
The GI50 was > 100 µM (inactive).

And the GI50 [19]?
Its GI50 is > 100 µM (inactive).

What about the GI50 [20] of the same molecule?
The GI50 was > 100 µM (inactive).

What does the source list for `C=CN1CCN(c2ccccc2)P1(=O)Oc1ccccc1` (configuration not stated)?
GI50 [1]: 65.2 µM (inactive); GI50 [2]: > 100 µM (inactive); GI50 [3]: 90.6 µM (inactive); GI50 [4]: > 100 µM (inactive); GI50 [5]: 31.3 µM (inactive); GI50 [6]: > 100 µM (inactive); GI50 [7]: > 100 µM (inactive); GI50 [8]: 45 µM (inactive); GI50 [9]: 42.5 µM (inactive); GI50 [10]: > 100 µM (inactive); GI50 [11]: 20 µM (inactive); GI50 [12]: 40.2 µM (inactive); GI50 [13]: > 100 µM (inactive); GI50 [14]: 55.6 µM (inactive); GI50 [15]: > 100 µM (inactive); GI50 [16]: 63.7 µM (inactive); GI50 [17]: > 100 µM (inactive); GI50 [18]: > 100 µM (inactive); GI50 [19]: > 100 µM (inactive); GI50 [20]: > 100 µM (inactive)

How did the GI50 [1] turn out when `Nc1ccccc1N/C=C\C(=O)C(Cl)(Cl)Cl` was run?
Its GI50 is 82.6 µM (inactive).

What about the GI50 [2] of the same molecule?
The GI50 was 14.5 µM (inactive).

What about the GI50 [3] of the same molecule?
Its GI50 is 14.8 µM (inactive).

And the GI50 [4]?
Its GI50 is 28.4 µM (inactive).

What about the GI50 [5] of the same molecule?
The GI50 was 35.3 µM (inactive).

And the GI50 [6]?
The GI50 was 22.8 µM (inactive).

And the GI50 [7]?
The GI50 was 19.5 µM (inactive).

And the GI50 [8]?
The GI50 was 15 µM (inactive).

And the GI50 [9]?
Its GI50 is 20.1 µM (inactive).

What about the GI50 [10] of the same molecule?
Its GI50 is 14.3 µM (inactive).

What about the GI50 [11] of the same molecule?
Its GI50 is 19.2 µM (inactive).

And the GI50 [12]?
The GI50 was 14.7 µM (inactive).

What about the GI50 [13] of the same molecule?
The GI50 was 15.9 µM (inactive).

And the GI50 [14]?
Its GI50 is 47.1 µM (inactive).

And the GI50 [15]?
The GI50 was 25.2 µM (inactive).

What about the GI50 [16] of the same molecule?
The GI50 was 18.6 µM (inactive).

What about the GI50 [17] of the same molecule?
The GI50 was 4.26 µM (inactive).

What about the GI50 [18] of the same molecule?
The GI50 was 16.7 µM (inactive).

What about the GI50 [19] of the same molecule?
The GI50 was 18.8 µM (inactive).

And the GI50 [20]?
Its GI50 is 40.3 µM (inactive).
